Laboratory results: ChEMBL document CHEMBL3739338, “Inhibition of carbonic anhydrase isoforms I, II, IV, VII and XII with carboxylates and sulfonamides incorporating phthalimide/phthalic anhydride scaffolds” (Bioorg Med Chem, 2016)
pKi: −log10 of the molar value.

Key:
Carbonic anhydrase 2 = Carbonic anhydrase 2 (Homo sapiens, UniProt P00918); experiment: Inhibition of human carbonic anhydrase-2 preincubated for 15 mins by stopped flow CO2 dehydration assay
Carbonic anhydrase 1 = Carbonic anhydrase 1 (Homo sapiens, UniProt P00915); experiment: Inhibition of human carbonic anhydrase-1 preincubated for 15 mins by stopped flow CO2 dehydration assay
Carbonic anhydrase 1, sequence (P00915 whole entry): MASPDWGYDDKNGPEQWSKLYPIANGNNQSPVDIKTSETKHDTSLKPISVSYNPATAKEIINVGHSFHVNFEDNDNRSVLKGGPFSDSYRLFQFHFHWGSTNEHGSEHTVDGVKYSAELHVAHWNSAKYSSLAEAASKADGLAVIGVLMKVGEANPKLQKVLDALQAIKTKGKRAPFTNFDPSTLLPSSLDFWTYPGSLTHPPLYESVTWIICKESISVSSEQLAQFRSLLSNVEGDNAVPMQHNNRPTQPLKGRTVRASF

Carbonic anhydrase 4 = Carbonic anhydrase 4 (Homo sapiens, UniProt P22748); experiment: Inhibition of human carbonic anhydrase-4 preincubated for 15 mins by stopped flow CO2 dehydration assay
Carbonic anhydrase 4, sequence (P22748 whole entry): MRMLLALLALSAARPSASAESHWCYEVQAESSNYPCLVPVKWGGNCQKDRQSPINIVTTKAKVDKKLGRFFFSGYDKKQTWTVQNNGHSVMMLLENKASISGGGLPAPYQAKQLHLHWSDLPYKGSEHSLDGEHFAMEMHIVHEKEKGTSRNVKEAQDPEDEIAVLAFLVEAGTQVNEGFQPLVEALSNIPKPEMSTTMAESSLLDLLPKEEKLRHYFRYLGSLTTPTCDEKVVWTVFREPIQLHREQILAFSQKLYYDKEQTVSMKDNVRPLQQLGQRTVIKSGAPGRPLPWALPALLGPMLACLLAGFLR

pKi (Carbonic anhydrase 2)	pKi (Carbonic anhydrase 1)	pKi (Carbonic anhydrase 4)	Structure (SMILES)
< 5.00	–	–	O=C(Nc1ccccc1C(=O)O)c1ccc2c(c1)C(=O)N(Cc1ccccc1)C2=O
7.98	–	–	NS(=O)(=O)c1ccc(CN2C(=O)c3ccc(C(=O)Nc4ccccc4C(=O)O)cc3C2=O)cc1
< 5.00	< 5.00	< 5.00	O=C(Nc1ccccc1C(=O)O)c1ccc2c(c1)C(=O)N(c1ccccc1)C2=O
7.86	–	–	NS(=O)(=O)c1ccc(CCN2C(=O)c3ccc(C(=O)Nc4ccccc4C(=O)O)cc3C2=O)cc1
< 5.00	–	–	O=C(Nc1ccccc1C(=O)O)c1ccc2c(c1)C(=O)N(CCc1ccccc1)C2=O
< 5.00	< 5.00	–	O=C(O)c1ccc(N2C(=O)c3ccc(C(=O)Nc4ccccc4C(=O)O)cc3C2=O)cc1

The next lines start with the compound.

Structure (SMILES)	pKi (Carbonic anhydrase 2)	pKi (Carbonic anhydrase 1)	pKi (Carbonic anhydrase 4)
CCOC(=O)c1ccc(N2C(=O)c3ccc(C(=O)Nc4ccccc4C(=O)O)cc3C2=O)cc1	< 5.00	< 5.00	–
COc1cc(NC(=O)c2ccc3c(c2)C(=O)OC3=O)c(C(=O)O)cc1OC	< 5.00	–	< 5.00
Cc1ccc(NC(=O)c2ccc3c(c2)C(=O)OC3=O)c(C(=O)O)c1	< 5.00	–	–
NS(=O)(=O)c1ccc(N2C(=O)c3ccc(C(=O)Nc4ccccc4C(=O)O)cc3C2=O)cc1	8.05	–	–
O=C(Nc1ccc(Cl)cc1C(=O)O)c1ccc2c(c1)C(=O)OC2=O	–	–	< 5.00
O=C(Nc1ccc(I)cc1C(=O)O)c1ccc2c(c1)C(=O)OC2=O	< 5.00	< 5.00	< 5.00
O=C(Nc1ccccc1C(=O)O)c1ccc2c(c1)C(=O)OC2=O	< 5.00	–	–
